# In US5073551A, “Cephalosporin compounds” (Sagami Chemical Research Center, priority 1988, dated 1991):
# Read-outs that look alike come from different tables or passages of the source.
# Legend:
# P. mirabilis IFO 3849 = assay: In-vitro antibacterial activity test, minimum growth inhibitory concentration (MIC), P. mirabilis; format: cell-based; conditions: Proteus mirabilis
# [1] = In-vivo absorption test, serum concentration after oral administration (bioassay); design: species or system Wistar type rat (male); conditions: 50 mg/kg, fasted male Wistar rat, bioassay with Bacirus cereus S1101, read-out: Blood concentration / Serum concentration; for concentration at 1 h: 1 hr after oral administration; for concentration at 2 h: 2 hr after oral administration; for concentration at 4 h: 4 hr after oral administration
# S. aureus 209 P-JC = assay: In-vitro antibacterial activity test, minimum growth inhibitory concentration (MIC), S. aureus; format: cell-based; conditions: Staphylococcus aureus, 209PJC, read-out: Minimum growth inhibitory concentration
# [2] = IFO3849, P. mirabilis IFO 3849, read-out: Minimum growth inhibitory concentration
Structure (SMILES),concentration at 1 h [1] [ng/mL],concentration at 2 h [1] [ng/mL],concentration at 4 h [1] [ng/mL],"MIC (P. mirabilis IFO 3849; IFO3849, read-out: Minimum growth inhibitory concentration) [µg/mL]",MIC (S. aureus 209 P-JC) [µg/mL],MIC (P. mirabilis IFO 3849; [2]) [µg/mL],MIC (S. aureus 209 P-JC; S. aureus 209 P-JC) [µg/mL]
Nc1nc(/C(=N/O)C(=O)NC2C(=O)N3C(C(=O)[O-])=C(/C=C\c4csnn4)CS[C@H]23)cs1.[Na+] (stereo partly shown),4800,6000,6000,0.1,≤ 0.025,,
"C=CC1=C(C(=O)O)N2C(=O)C(NC(=O)/C(=N\OCC(=O)O)c3csc(N)n3)C2SC1 (stereo not shown) [A, reference compound]",,,,,,≤ 0.025,12.5
"Cc1nnsc1/C=C\C1=C(C(=O)[O-])N2C(=O)C(NC(=O)/C(=N\O)c3csc(N)n3)[C@H]2SC1.[Na+] (stereo partly shown) [Example 14, sodium 7-[(Z)-2-(2-aminothiazol-4-yl)-2-hydroxyiminoacetamido]-3-[(Z)-2-(4-methyl-1,2,3-thiadiazol-5-yl)vinyl]-3-cephem-4-carboxylate]",,,,,,0.39,0.1
"Cc1snnc1/C=C\C1=C(C(=O)[O-])N2C(=O)C(NC(=O)/C(=N\O)c3csc(N)n3)[C@H]2SC1.[Na+] (stereo partly shown) [Example 18, sodium 7-[(Z)-2-(2-aminothiazol-4-yl)-2-hydroxyiminoacetamido]-3-[(Z)-2-(5-methyl-1,2,3-thiadiazol-4-yl)vinyl]-3-cephem-4-carboxylate]",,,,,,0.39,0.2
Nc1nc(/C(=N/O)C(=O)NC2C(=O)N3C(C(=O)O)=C(/C=C\c4cnns4)CSC23)cs1 (stereo not shown) [Example 21],,,,,,0.39,0.2

# The next lines start with results.
concentration at 1 h [1] [ng/mL],concentration at 2 h [1] [ng/mL],concentration at 4 h [1] [ng/mL],Structure (SMILES),"MIC (P. mirabilis IFO 3849; IFO3849, read-out: Minimum growth inhibitory concentration) [µg/mL]",MIC (S. aureus 209 P-JC) [µg/mL],MIC (P. mirabilis IFO 3849; [2]) [µg/mL],MIC (S. aureus 209 P-JC; S. aureus 209 P-JC) [µg/mL]
26600,37800,26700,"CCOC(=O)OC(C)OC(=O)C1=C(/C=C\c2csnn2)CSC2C(NC(=O)/C(=N\O)c3csc(N)n3)C(=O)N12 (racemic) [Example 22, DL-1-ethoxycarbonyloxyethyl 7-[(Z)-(2-aminothiazol-4-yl)-2-hydroxyiminoacetamido]-3-[(Z)-2-(1,2,3-thiadiazol-4-yl)vinyl]-3-cephem-4-carboxylate]",,,,
72100,56600,33400,"CC(=O)OC(C)OC(=O)C1=C(/C=C\c2csnn2)CSC2C(NC(=O)/C(=N\O)c3csc(N)n3)C(=O)N12 (racemic) [Example 23, DL-1-acetyloxyethyl 7-[(Z)-2-(2-aminothiazol-4-yl)-2-hydroxyiminoacetamido]-3-[(Z)-2-(1,2,3-thiadiazol-4-yl)vinyl]-3-cephem-4-carboxylate]",,,,
11300,9800,5800,"CC(C)(C)C(=O)OCOC(=O)C1=C(/C=C\c2csnn2)CS[C@@H]2C(NC(=O)/C(=N\O)c3csc(N)n3)C(=O)N12 (stereo partly shown) [Example 19, pivalyloxymethyl 7-[(Z)-(2-aminothiazol-4-yl)-2-hydroxyiminoacetamido]-3-[(Z)-2-(1,2,3-thiadiazol-4-yl)vinyl]-3-cephem-4-carboxylate]",,,,
